Assay results taken from patent US10294202B2, “Pyrrolidinones as herbicides” (FMC Corporation, priority 2013, dated 2019).

Legend:
barnyardgrass [1] = assay: Test B flooded paddy test; assay type: in vivo, Echinochloa crus-galli; settings: 500 g ai/ha, Flood; scale of 0 to 100 where 0 is no effect and 100 is complete control
Summary of the method: (§1)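 Scored visually 0–100 (0 no effect, 100 complete control) versus controls after 13 to 15 greenhouse days. Treatment: compound added to paddy water kept 3 cm above soil, on 2-leaf-stage plants.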

ducksalad = assay: Test B flooded paddy test; assay type: in vivo, Heteranthera limosa; settings: 500 g ai/ha, Flood; scale of 0 to 100 where 0 is no effect and 100 is complete control
Summary of the method: as §1

kochia = assay: Test A pre-/postemergence herbicide test; assay type: in vivo, Kochia scoparia; settings: for Plant response rating, Kochia: 0 to 100 scale
Summary of the method: (§2)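 Greenhouse pot test with pre- and postemergence application of surfactant-containing solvent formulations. Postemergence plants were 2–10 cm, one- to two-leaf stage. Response scored visually after ~10 days, 0 (no effect) to 100 (complete control).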

ryegrass, Italian = assay: Test A pre-/postemergence herbicide test; assay type: in vivo, Lolium multiflorum; settings: for Plant response rating, Ryegrass, Italian: 0 to 100 scale
Summary of the method: as §2

ragweed = assay: Test A pre-/postemergence herbicide test; assay type: in vivo, Ambrosia elatior; settings: for Plant response rating, Ragweed: 0 to 100 scale
Summary of the method: as §2

rice = assay: Test B flooded paddy test; assay type: in vivo, Oryza sativa; settings: 500 g ai/ha, Flood; scale of 0 to 100 where 0 is no effect and 100 is complete control
Summary of the method: as §1

pigweed = assay: Test A pre-/postemergence herbicide test; assay type: in vivo, Amaranthus retroflexus; settings: for Plant response rating, Pigweed: 0 to 100 scale
Summary of the method: as §2

blackgrass = assay: Test A postemergence herbicide test; assay type: in vivo, Alopecurus myosuroides; settings: for Plant response rating, Blackgrass: 125 g ai/ha, 0 to 100 scale, 0 no effect, 100 complete control; for Blackgrass plant response rating (0 to 100 scale, 0 is no effect, 100 is complete control): 500 g ai/ha
Summary of the method: (§3)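 Visual injury rating, 0 (no effect) to 100 (complete control), versus untreated controls ~10 days after treatment. Postemergence spray applied at one- to two-leaf stage, plants 2–10 cm tall, potted in loam soil/sand. Greenhouse-held.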

sedge, umbrella = assay: Test B flooded paddy test; assay type: in vivo, Cyperus difformis; settings: 500 g ai/ha, Flood; scale of 0 to 100 where 0 is no effect and 100 is complete control
Summary of the method: as §1

galium = assay: Test A postemergence herbicide test; assay type: in vivo, Galium aparine; settings: for Plant response rating, Galium: 125 g ai/ha, 0 to 100 scale, 0 no effect, 100 complete control; for Galium plant response rating (0 to 100 scale, 0 is no effect, 100 is complete control): 500 g ai/ha
Summary of the method: as §3

wheat = assay: Test A pre-/postemergence herbicide test; assay type: in vivo, Triticum aestivum; settings: Postemergence; for Plant response rating, Wheat: 125 g ai/ha, 0 to 100 scale, 0 no effect, 100 complete control; for Wheat plant response rating (0 to 100 scale, 0 is no effect, 100 is complete control): 500 g ai/ha
Summary of the method: as §2

barnyardgrass [2] = assay: Test A pre-/postemergence herbicide test; assay type: in vivo, Echinochloa crus-galli
Summary of the method: as §2

giant foxtail = assay: Test A pre-/postemergence herbicide test; assay type: in vivo, Setaria faberii; settings: for Plant response rating, Foxtail, Giant: 0 to 100 scale
Summary of the method: as §2

corn = assay: Test A pre-/postemergence herbicide test; assay type: in vivo, Zea mays; settings: Postemergence; for Plant response rating, Corn: 125 g ai/ha, 0 to 100 scale, 0 no effect, 100 complete control; for Corn plant response rating (0 to 100 scale, 0 is no effect, 100 is complete control): 500 g ai/ha
Summary of the method: as §2

[3] = 125 g ai/ha, visual rating, 0 no effect, 100 complete control, approximately 10 days, preemergence
[4] = Postemergence, 125 g ai/ha, 0 no effect, 100 complete control
[5] = 125 g ai/ha, visual rating, 0 to 100 scale, 0 no effect, 100 complete control, approximately 10 days, preemergence
[6] = Postemergence, 125 g ai/ha, 0 to 100 scale, 0 no effect, 100 complete control
[7] = preemergence, 500 g ai/ha, 0 to 100 scale (0 no effect, 100 complete control)

| Structure (SMILES) | Plant response rating, Barnyardgrass (barnyardgrass [1]) | Plant response rating, Ducksalad (ducksalad) | Plant response rating, Kochia (kochia; [3]) | Plant response rating, Kochia (kochia; [4]) | Kochia plant response rating (0 to 100 scale, 0 is no effect, 100 is complete control) (kochia; Postemergence, 500 g ai/ha) | Plant response rating, Kochia (kochia; preemergence, 500 g ai/ha) | Plant response rating, Ryegrass, Italian (ryegrass, Italian; [3]) | Plant response rating, Ryegrass, Italian (ryegrass, Italian; [4]) | Ryegrass, Italian plant response rating (0 to 100 scale, 0 is no effect, 100 is complete control) (ryegrass, Italian; Postemergence, 500 g ai/ha) | Plant response rating, Ryegrass, Italian (ryegrass, Italian; preemergence, 500 g ai/ha) | Plant response rating, Ragweed (ragweed; [3]) | Plant response rating, Ragweed (ragweed; [4]) | Ragweed plant response rating (0 to 100 scale, 0 is no effect, 100 is complete control) (ragweed; Postemergence, 500 g ai/ha) | Plant response rating, Ragweed (ragweed; preemergence, 500 g ai/ha) | Plant response rating, Rice (rice) | Plant response rating, Pigweed (pigweed; [3]) | Plant response rating, Pigweed (pigweed; [4]) | Pigweed plant response rating (0 to 100 scale, 0 is no effect, 100 is complete control) (pigweed; Postemergence, 500 g ai/ha) | Plant response rating, Pigweed (pigweed; preemergence, 500 g ai/ha) | Plant response rating, Blackgrass (blackgrass) | also measured |
| --- | --- | --- | --- | --- | --- | --- | --- | --- | --- | --- | --- | --- | --- | --- | --- | --- | --- | --- | --- | --- | --- |
| COc1cc(C2CNC(=O)C2C(=O)Nc2ccccc2Cl)ccc1F (racemic) [Compound 133] | 30 | 60 | 0 | 0 | 0 | 0 | 0 | 0 | 0 | 0 | 0 | 0 | 0 | 0 | 0 | 0 | 0 | 0 | 0 | 0 | Blackgrass plant response rating (0 to 100 scale, 0 is no effect, 100 is complete control) (blackgrass): 0; Plant response rating, Sedge, Umbrella (sedge, umbrella): 0; Plant response rating, Galium (galium): 0; Galium plant response rating (0 to 100 scale, 0 is no effect, 100 is complete control) (galium): 0; Plant response rating, Wheat (wheat): 0; Wheat plant response rating (0 to 100 scale, 0 is no effect, 100 is complete control) (wheat): 0; Plant response rating, Barnyardgrass (barnyardgrass [2]; [5]): 20; Plant response rating, Barnyardgrass (barnyardgrass [2]; [6]): 30; Barnyardgrass plant response rating (0 to 100 scale, 0 is no effect, 100 is complete control) (barnyardgrass [2]; Postemergence, 500 g ai/ha): 80; Plant response rating, Barnyardgrass (barnyardgrass [2]; [7]): 30; Plant response rating, Foxtail, Giant (giant foxtail; [3]): 30; Plant response rating, Foxtail, Giant (giant foxtail; [4]): 20; Foxtail, Giant plant response rating (0 to 100 scale, 0 is no effect, 100 is complete control) (giant foxtail; Postemergence, 500 g ai/ha): 50; Plant response rating, Foxtail, Giant (giant foxtail; preemergence, 500 g ai/ha): 90; Plant response rating, Corn (corn): 0; Corn plant response rating (0 to 100 scale, 0 is no effect, 100 is complete control) (corn): 0 |
| Cc1cc(C2CNC(=O)C2C(=O)Nc2ccccc2Cl)ccc1F (racemic) [Compound 143] | 35 | 100 | 30 | 0 | 0 | 30 | 0 | 0 | 0 | 0 | 0 | 0 | 0 | 0 | 0 | 0 | 0 | 0 | 0 | 0 | Blackgrass plant response rating (0 to 100 scale, 0 is no effect, 100 is complete control) (blackgrass): 0; Plant response rating, Sedge, Umbrella (sedge, umbrella): 0; Plant response rating, Galium (galium): 0; Galium plant response rating (0 to 100 scale, 0 is no effect, 100 is complete control) (galium): 40; Plant response rating, Wheat (wheat): 0; Wheat plant response rating (0 to 100 scale, 0 is no effect, 100 is complete control) (wheat): 0; Plant response rating, Barnyardgrass (barnyardgrass [2]; [5]): 60; Plant response rating, Barnyardgrass (barnyardgrass [2]; [6]): 50; Barnyardgrass plant response rating (0 to 100 scale, 0 is no effect, 100 is complete control) (barnyardgrass [2]; Postemergence, 500 g ai/ha): 90; Plant response rating, Barnyardgrass (barnyardgrass [2]; [7]): 90; Plant response rating, Foxtail, Giant (giant foxtail; [3]): 30; Plant response rating, Foxtail, Giant (giant foxtail; [4]): 20; Foxtail, Giant plant response rating (0 to 100 scale, 0 is no effect, 100 is complete control) (giant foxtail; Postemergence, 500 g ai/ha): 30; Plant response rating, Foxtail, Giant (giant foxtail; preemergence, 500 g ai/ha): 90; Plant response rating, Corn (corn): 0; Corn plant response rating (0 to 100 scale, 0 is no effect, 100 is complete control) (corn): 0 |
| Cc1ccc(C2CNC(=O)C2C(=O)Nc2ccccc2F)cc1F (racemic) [Compound 144] | 65 | 100 | 0 | 0 | 0 | 0 | 0 | 0 | 40 | 20 | 0 | 0 | 0 | 0 | 0 | 0 | 0 | 0 | 0 | 0 | Blackgrass plant response rating (0 to 100 scale, 0 is no effect, 100 is complete control) (blackgrass): 30; Plant response rating, Sedge, Umbrella (sedge, umbrella): 0; Plant response rating, Galium (galium): 10; Galium plant response rating (0 to 100 scale, 0 is no effect, 100 is complete control) (galium): 70; Plant response rating, Wheat (wheat): 0; Wheat plant response rating (0 to 100 scale, 0 is no effect, 100 is complete control) (wheat): 0; Plant response rating, Barnyardgrass (barnyardgrass [2]; [5]): 90; Plant response rating, Barnyardgrass (barnyardgrass [2]; [6]): 90; Barnyardgrass plant response rating (0 to 100 scale, 0 is no effect, 100 is complete control) (barnyardgrass [2]; Postemergence, 500 g ai/ha): 90; Plant response rating, Barnyardgrass (barnyardgrass [2]; [7]): 90; Plant response rating, Foxtail, Giant (giant foxtail; [3]): 60; Plant response rating, Foxtail, Giant (giant foxtail; [4]): 40; Foxtail, Giant plant response rating (0 to 100 scale, 0 is no effect, 100 is complete control) (giant foxtail; Postemergence, 500 g ai/ha): 70; Plant response rating, Foxtail, Giant (giant foxtail; preemergence, 500 g ai/ha): 80; Plant response rating, Corn (corn): 0; Corn plant response rating (0 to 100 scale, 0 is no effect, 100 is complete control) (corn): 20 |
